In paper PMC3595096 (Biochemistry, 2012):
“And” between values parts separate entries of the source, which are not always exact repeats. Identical values can stand only once. Counter-ions that a name gives are not always drawn.

Columns and labels:
[1] = system: various subtypes of muscarinic receptor; conditions: cited from earlier work
[2] = molecular target: M2 receptor extracted from porcine atria (Sus scrofa, UniProt P06199); type: binding
[3] = molecular target: T1, human M2 receptor (Homo sapiens, UniProt P08172); type: binding
T1 sequence (P08172 whole entry): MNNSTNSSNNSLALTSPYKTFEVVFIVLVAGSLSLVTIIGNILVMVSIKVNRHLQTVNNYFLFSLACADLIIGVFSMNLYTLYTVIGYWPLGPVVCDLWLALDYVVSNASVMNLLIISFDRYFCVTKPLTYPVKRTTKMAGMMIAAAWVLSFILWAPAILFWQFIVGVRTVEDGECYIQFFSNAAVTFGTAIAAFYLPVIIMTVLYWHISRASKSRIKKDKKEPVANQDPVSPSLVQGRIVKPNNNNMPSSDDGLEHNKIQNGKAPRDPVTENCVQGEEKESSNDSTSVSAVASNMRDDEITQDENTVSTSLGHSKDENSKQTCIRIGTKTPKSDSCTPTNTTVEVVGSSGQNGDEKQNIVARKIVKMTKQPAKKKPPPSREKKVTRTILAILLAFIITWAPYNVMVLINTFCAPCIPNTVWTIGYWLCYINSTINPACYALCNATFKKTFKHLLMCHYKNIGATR

[4] = system: monomers of the M2 receptor; conditions: cited from earlier work
[5] = molecular target: T2, M2 receptor (Sus scrofa, UniProt P06199); type: binding
T2 sequence (P06199 whole entry): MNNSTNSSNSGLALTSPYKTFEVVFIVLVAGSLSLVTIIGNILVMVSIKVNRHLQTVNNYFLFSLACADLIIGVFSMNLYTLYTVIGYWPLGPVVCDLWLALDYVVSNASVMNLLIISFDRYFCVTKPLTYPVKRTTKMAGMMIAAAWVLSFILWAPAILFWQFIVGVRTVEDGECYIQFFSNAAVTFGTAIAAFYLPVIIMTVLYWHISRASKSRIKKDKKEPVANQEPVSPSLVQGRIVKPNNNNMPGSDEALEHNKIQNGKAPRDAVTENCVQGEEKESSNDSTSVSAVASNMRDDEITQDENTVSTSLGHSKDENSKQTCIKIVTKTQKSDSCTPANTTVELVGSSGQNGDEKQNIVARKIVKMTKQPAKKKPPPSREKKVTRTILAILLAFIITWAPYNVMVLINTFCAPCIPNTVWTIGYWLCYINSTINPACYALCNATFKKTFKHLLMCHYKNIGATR

[6] = system: muscarinic acetylcholine M2 receptors; conditions: cited from earlier work
[7] = molecular target: M2 receptor in sarcolemmal membranes (Sus scrofa, UniProt P06199); assay: biochemical; type: binding, porcine
Sequence of M2 receptor in sarcolemmal membranes (P06199 whole entry): as above

[8] = molecular target: T1, human M2 receptor; type: binding; remark: listed apart in the source
[9] = molecular target: M2 receptor from porcine atria (Sus scrofa, UniProt P06199); assay: biochemical; type: binding
Sequence of M2 receptor from porcine atria (P06199 whole entry): as above

[10] = molecular target: T2, M2 receptor; conditions: cited from earlier work

Sequence of M2 receptor extracted from porcine atria (P06199 whole entry): as above

Clc1cccc(Cl)c1CO/N=C/c1cc[n+](CCC[n+]2ccc(/C=N/OCc3c(Cl)cccc3Cl)cc2)cc1 [Duo-3]
Hill coefficient [1]: greater than 1

COc1ccc2c(c1)c1c3c(c4c5ccccc5n(C)c4c1n2CC(O)CN(C)C)C(=O)NC3=O (stereo not shown) [Go7874]
Hill coefficient [1]: greater than 1

COC(=O)[C@@]1(OC)C[C@H]2O[C@]1(C)n1c3ccccc3c3c4c(c5c6ccccc6n2c5c31)C(=O)N(C)C4 [KT5823]
Hill coefficient [1]: greater than 1

C[N+]1(C)[C@@H]2C[C@@H](OC(=O)[C@H](CO)c3ccccc3)C[C@H]1[C@@H]1O[C@@H]12 [N-[^3H]methylscopolamine, N-[^3H]Methylscopolamine]
observed rate constant for dissociation kobsd, range of values [2]: 0.179 to 0.247 min⁻¹
observed rate constant for dissociation kobsd, range of values [3]: 0.054 to 0.059 min⁻¹
rate constant of net dissociation k (mean) [3]: 0.053 ± 0.002
rate constant of dissociation [4]: 0.036 ± 0.001

CN1[C@@H]2CC[C@H]1C[C@@H](OC(=O)C(CO)c1ccccc1)C2 (stereo partly shown) [atropine, Atropine sulfate]
Hill coefficient for inhibition of N-[3H]methylscopolamine [5]: indistinguishable from 1

CC[N+](CC)(CC)CCOc1cccc(OCC[N+](CC)(CC)CC)c1OCC[N+](CC)(CC)CC [gallamine, gallamine triethiodide]
log K [4]: −4.12
cooperativity factor [6]: 46
cooperativity factor (1/α), Scheme 2 [7]: about 70
EC50 ([7]; log K1): 0.0537 µM and 0.282 µM
nH(1) [8]: 2.41
EC50 [9]: ~71 µM

Nc1c2c(nc3ccccc13)CCCC2 [tacrine]
Hill coefficient [1]: greater than 1
Hill coefficient [10]: exceed 1
